Patent US8110550B2, “HDAC inhibitors and hormone targeted drugs for the treatment of cancer” (University of Maryland, Baltimore, priority 2007, dated 2012)
pIC50: −log10 of the molar value. “Also recorded” adds a separate entry of the source. Where two headings read alike, the source gives them in different places. Blank lines part the entries; values can stand above or below the compound they belong to.

Tests used:
ER- MDA-MB-231 cells = assay: MTT cell viability / proliferation assay, MDA-MB-231; format: cell-based
Experimental: (§1) IC50 and IC25 values for inhibitors is calculated from the linear regression line of the plot of percentage inhibition versus log inhibitor concentration. These IC50 values is used for combination or sequencing studies. The effect of combination or sequence of treatment is determined at IC25 of each agent.
(§2) For a cell proliferation assay, 10^4 cells were plated in a 96 well plate and treated with indicated drugs for 6 days. The medium was replaced after 3 days. On day 7, 500 μg/ml of MTT solution was added to each well and cells incubated for 3 hours. The tetrazolium dye trapped inside the mitochondria of the cells was dissolved in DMSO and the absorbance was measured at 560 nm.

Hs 578T = assay: MTT cell proliferation assay, Hs 578T; format: cell-based; settings: Her-2 status +, read-out: IC50 values for inhibition of ER-cell proliferation, Hs 578T
Experimental: as §1, with “MTT assay was performed to measure viability of breast cancer cells after treatment with various test compounds (Sabnis et al. 2005). IC50 and” for “IC50 and”
as §2, with “Exemplary ER negative cell lines (MDA-MB-231) were used. For” for “For”

SKBr3 = assay: MTT cell proliferation assay, SKBr3; format: cell-based; settings: Her-2 status ++++, read-out: IC50 values for inhibition of ER-cell proliferation, SKBr3
Experimental: as §1, §2

aromatase (CYP19) = assay: Western immunoblotting for aromatase protein expression in MDA-MB-231 cells; format: cell-based; settings: 24 hour treatment
Excerpt: (§3) Expression of ER and Aromatase proteins was examined by Western blotting. β-actin was used as a loading control.

aromatase [1] = assay: Radiometric 3H2O release assay for aromatase activity in MDA-MB-231 cells; format: cell-based; design: aromatase activity: dose or concentration left out as unconfirmed; settings: for aromatase activity after pre-treatment: MDA-MB-231 cells
Experimental: The aromatase activity assay was described by Yue et al. (1997). The expression and activation of aromatase was seen after treatment with HDACi. […] This up-regulation of aromatase activity was dose dependent.
150,000 cells were plated in IMEM without PR with 5% steroid free serum, 1% penicillin-streptomycin and 750 μg/ml G418. Next day the cells were incubated with 0.5 μCi of [1β^3H] androstenedione (Specific activity 23.5 Ci/mmole) in 1 ml of media containing 1% charcoal stripped serum for 18 hours. The medium was then collected and treated with TCA (trichloroacetic acid) to precipitate proteins. The residual steroids in the medium were extracted and removed with chloroform and further treated with a 2.5% charcoal suspension. The ^3H2O in the supernatant was measured using a scintillation counter. In this assay ^3H2O is released during conversion of [1β^3H] Δ4A to estrone, catalyzed by the enzyme aromatase. For pre-treatment studies, cells were plated as described above and then next day pre-treated with indicated agent for 24 hours before incubating with [1β^3H] Δ4A for 18 hours. The activity of the enzyme is corrected for protein concentration in the cells plated and treated.

ERα = assay: Western immunoblotting for ERα protein expression in MDA-MB-231 cells; format: cell-based; settings: 10 nM
Excerpt: Protein expression of other ER inducible genes such as c-Myc and PgR can also be examined.
as §3

MDA-MB-231 xenografts = MDA-MB-231 xenografts in female ovariectomized nude mice; format: in vivo
Experimental: The tumors of MDA-MB-231 cells were grown in female ovariectomized nude mice. Sub-confluent cells were collected into Citric Saline, centrifuged and resuspended in Matrigel (10 mg/mL) at ˜2.5×10^7 cells/mL. Each mouse received subcutaneous inoculations in two sites per flank with 100 μL of cell suspension. Mice were then injected subcutaneously daily with 0.3% HPC in 0.9% NaCl (vehicle) until the tumors reached a measurable size (˜150 mm^3). At this point the mice were grouped such that the starting tumor volumes were not statistically different across the groups. The mice were injected with indicated agents (5× weekly) for indicated time. The tumors were measured weekly with calipers and the tumor volumes were calculated using the formula (4/3)πr1^2r2(r1≦r2).

aromatase [2] = assay: 3H2O release assay for aromatase activity in tumor homogenates; format: in vivo, mice; settings: MDA-MB-231 xenograft tumors
Experimental: (§4) Expression of ER and aromatase proteins was examined by Western blotting. β-actin was used as a loading control. The radiometric ^3H2O release assay for aromatase activity was performed as follows: the tumors were homogenized using ice-cold DPBS and the homogenate was used for the aromatase assay. ^3H2O release assay was performed using [1β^3H] androstenedione (Specific activity 23.5 Ci/mmole). The activity of the enzyme is corrected for protein concentration in the tumor homogenates.

[3] = tested on: ERα, aromatase and androgen receptor; assay: Western blotting of xenograft tumors; format: in vivo, mice; settings: MDA-MB-231 xenograft tumors
Experimental: as §4

[4] = Homo sapiens, MDA-MB-231, Her-2 status −, read-out: IC50 values for inhibition of ER-cell proliferation, MDA-MB-231

- pIC50 (ER- MDA-MB-231 cells; [4]): 1.69
- pIC50 (ER- MDA-MB-231 cells; Homo sapiens, MDA-MB-231, MDA-MB-231 cells, single agent, read-out: IC50, inhibition of cell growth): 1.69
- pIC50 (SKBr3; Homo sapiens, SK-BR-3): 4.77
Compound: CCCC(=O)O [BA, butyric acid]
- growth inhibitory effect (ER- MDA-MB-231 cells; MDA-MB-231 cells, single agent): inhibited
- pIC50 (Hs 578T; Homo sapiens, Hs-578T): 1.17
- expression of aromatase up-regulated (aromatase (CYP19); 1 μM): 1.2 fold
- aromatase activity after pre-treatment (aromatase [1]): upregulated

- pIC50 (ER- MDA-MB-231 cells; [4]): 4.01
- pIC50 (SKBr3; Homo sapiens, SK-BR-3): 5.07
Compound: CC(=O)Nc1ccc(C(=O)Nc2ccccc2N)cc1 [CJ-994, 4-acetylamino-N-(2′-aminophenyl)-benzamide]
- pIC50 (Hs 578T; Homo sapiens, Hs-578T): 6.91

Compound: O=C(CCCCCCC(=O)Nc1ccccc1)NO [SAHA, N′-hydroxy-N-phenyl-octanediamide]
- pIC50 (Hs 578T; Homo sapiens, Hs-578T): 7.77
- protein expression of ERα up-regulated (ERα): 9.9 fold
- expression of aromatase up-regulated (aromatase (CYP19); 10 nM): 1.77 fold
- aromatase activity after pre-treatment (aromatase [1]): upregulated

Compound: CC(C)(C#N)c1cc(Cn2cncn2)cc(C(C)(C)C#N)c1 [anastrozole]
- growth inhibitory effect (ER- MDA-MB-231 cells; MDA-MB-231 cells, single agent): refractory

Compound: C=C1C[C@@H]2[C@H](CC[C@]3(C)C(=O)CC[C@@H]23)[C@@]2(C)C=CC(=O)C=C12 [exemestane]
- growth inhibitory effect (ER- MDA-MB-231 cells; MDA-MB-231 cells, single agent): refractory

Compound: C[C@]12CC[C@@H]3c4ccc(O)cc4C[C@@H](CCCCCCCCC[S+]([O-])CCCC(F)(F)C(F)(F)F)[C@H]3[C@@H]1CC[C@@H]2O (stereo partly drawn) [fulvestrant]
- growth inhibitory effect (ER- MDA-MB-231 cells; MDA-MB-231 cells, single agent): refractory

- pIC50 (ER- MDA-MB-231 cells; Homo sapiens, MDA-MB-231, MDA-MB-231 cells, combined with MS-275 (0.1 nM), read-out: IC50 of letrozole for cell growth inhibition): 7.81
- pIC50 (ER- MDA-MB-231 cells; Homo sapiens, MDA-MB-231, MDA-MB-231 cells, combined with SAHA, read-out: IC50 of letrozole for cell growth inhibition): 5.95
Compound: N#Cc1ccc(C(c2ccc(C#N)cc2)n2cncn2)cc1 [letrozole]
- cell growth inhibition in combination (ER- MDA-MB-231 cells; MDA-MB-231 cells, letrozole combined with MS-275 (0.1 nM)): synergistically inhibit cell growth in a dose dependent manner
- cell growth inhibition in combination (ER- MDA-MB-231 cells; MDA-MB-231 cells, letrozole combined with SAHA): synergistically inhibit cell growth in a dose dependent manner
- growth inhibitory effect (ER- MDA-MB-231 cells; MDA-MB-231 cells, single agent): refractory; also recorded: did not inhibit growth

Compound: CC/C(=C(\c1ccccc1)c1ccc(OCCN(C)C)cc1)c1ccccc1 [tamoxifen]
- growth inhibitory effect (ER- MDA-MB-231 cells; MDA-MB-231 cells, single agent): refractory

- pIC50 (ER- MDA-MB-231 cells; MDA-MB-231 cells, single agent, read-out: IC50, growth inhibition): 7.09
- pIC50 (SKBr3): 10.17
Compound: N-(2-aminophenyl)-4-(N-(pyridin-3-ylmethoxycarbonyl)aminomethyl) benzamide [MS-275]
- growth inhibitory effect (ER- MDA-MB-231 cells; MDA-MB-231 cells, single agent): significantly inhibited
- pIC50 (Hs 578T): 7.55
- protein expression of ERα up-regulated (ERα): 8 fold
- expression of aromatase up-regulated (aromatase (CYP19); 10 nM): 2.6 fold
- aromatase activity after pre-treatment (aromatase [1]): upregulated
- aromatase activity (aromatase [1]; then 1β-3H-androstenedione 18 hours, basal 3.02): 15.193 pmoles/μg of protein/hour
- growth of MDA-MB-231 xenografts (MDA-MB-231 xenografts; 5x weekly dosing): inhibits growth of MDA-MB-231 xenografts
- effectiveness by route of administration (MDA-MB-231 xenografts; oral versus other route): more effective when given orally
- uterine weight (MDA-MB-231 xenografts; ovariectomized mice, bioassay for estrogenic/antiestrogenic effects): does not affect the uterine weight
- intra-tumoral aromatase activity (aromatase [2]): upregulates intra-tumoral aromatase activity
- expression of ERα, aromatase and androgen receptor in tumors [3]: upregulates
